For one test, the target named is T1, human His-PIM1 [2-313] (Homo sapiens, UniProt P11309).
T1 construct: purified human His-PIM1 [2-313] enzyme; His (N); purchased University of Dundee, Scotland; host or cells: baculovirus system
The test can be described thus: PIM1 in-vitro mobility shift assay (Caliper LC3000, FL-Ahx-Bad phosphorylation). Format: biochemical. The following applies: 1.5 h, read-out: PIM1 % I at 0.3 uM. Put shortly: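 Compound preincubated 20 min at 25 °C with 2.4 nM PIM1, 3.6 µM FL-Ahx-Bad peptide and 240 µM ATP (1.2× mix concentrations). Reaction started with 24 mM MgCl2 mix, run 90 min at 25 °C, EDTA-stopped. Phospho/unphospho peptide separated by microfluidic mobility shift; percent inhibition from ratiometric turnover.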

The target of another test is T2, human His-PIM2 [23-299] (Homo sapiens, UniProt Q9P1W9).
T2 construct: purified human His-PIM2 [23-299] enzyme; His (N); host or cells: E. coli
T2 sequence (Q9P1W9 23-299): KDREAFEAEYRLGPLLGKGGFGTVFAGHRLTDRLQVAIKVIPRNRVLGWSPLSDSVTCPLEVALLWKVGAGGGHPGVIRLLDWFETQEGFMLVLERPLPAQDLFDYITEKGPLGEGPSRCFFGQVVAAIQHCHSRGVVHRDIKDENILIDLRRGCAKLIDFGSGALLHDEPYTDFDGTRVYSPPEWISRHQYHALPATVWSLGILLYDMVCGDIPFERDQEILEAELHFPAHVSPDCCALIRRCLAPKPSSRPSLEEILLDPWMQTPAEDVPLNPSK
The test can be described thus: PIM2 in-vitro mobility shift assay (Caliper LC3000, FL-Ahx-Bad phosphorylation). The test is classed as biochemical. The following applies: 1.5 h; percent inhibition at 0.3 uM compound; read-out: PIM2 % I at 0.3 uM.

The mark [1] stands for this setting: percent inhibition at 0.3 uM compound.

The structures appear in SMILES notation. Where a name gives a salt, the structure may show the parent alone. Read-outs that look alike come from different tables or passages of the source.

T1 sequence (P11309 2-313): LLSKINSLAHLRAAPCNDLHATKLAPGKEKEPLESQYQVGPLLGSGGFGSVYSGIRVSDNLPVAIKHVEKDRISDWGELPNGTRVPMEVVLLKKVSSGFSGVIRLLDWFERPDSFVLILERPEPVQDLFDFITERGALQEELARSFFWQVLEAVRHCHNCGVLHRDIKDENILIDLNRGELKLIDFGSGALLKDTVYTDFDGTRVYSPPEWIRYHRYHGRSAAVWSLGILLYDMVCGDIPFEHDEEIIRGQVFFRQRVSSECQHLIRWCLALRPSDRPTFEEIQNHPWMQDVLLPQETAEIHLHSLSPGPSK

With `N[C@@H]1CCCN(c2c(/C=C3\SC(=O)NC3=O)cccc2OC2CCC2)C1` [Example 122AD, (R,Z)-5-(2-(3-aminopiperidin-1-yl)-3-cyclobutoxybenzylidene)thiazolidine-2,4-dione hydrochloride], the inhibition at 0.3 µM on human His-PIM1 [2-313] (setting [1]) and at human His-PIM2 [23-299] was greater than 95% each time.

Take `NC(=O)c1ccc(N2CCC[C@@H](N)C2)c(/C=C2\SC(=O)NC2=O)c1` [Example 122AE, (R,Z)-4-(3-aminopiperidin-1-yl)-3-((2,4-dioxothiazolidin-5-ylidene)methyl)benzamide hydrochloride]: the inhibition at 0.3 µM on human His-PIM1 [2-313] (setting [1]) and at human His-PIM2 [23-299] was greater than 95% each time.

With `NC(=O)c1ccc(N2CCC[C@H](N)C2)c(/C=C2\SC(=O)NC2=O)c1` [Example 122AF, (S,Z)-4-(3-aminopiperidin-1-yl)-3-((2,4-dioxothiazolidin-5-ylidene)methyl)benzamide hydrochloride], the inhibition at 0.3 µM on human His-PIM1 [2-313] (setting [1]) came out at 83.9%; on human His-PIM2 [23-299], 87.9%.

As for `N[C@@H]1CCCN(c2ccc(C(=O)O)cc2/C=C2\SC(=O)NC2=O)C1` [Example 122AG, (R,Z)-4-(3-aminopiperidin-1-yl)-3-((2,4-dioxothiazolidin-5-ylidene)methyl)benzoic acid hydrochloride], the values for the inhibition at 0.3 µM at human His-PIM1 [2-313] (setting [1]) and on human His-PIM2 [23-299] were 68.9% and 86.7%, respectively.

Turning to `N[C@H]1CCN(c2ccc(C(=O)O)cc2/C=C2\SC(=O)NC2=O)C1` [Example 122AH, (S,Z)-4-(3-aminopyrrolidin-1-yl)-3-((2,4-dioxothiazolidin-5-ylidene)methyl)benzoic acid], the inhibition at 0.3 µM on human His-PIM1 [2-313] (setting [1]) stood at 19%; at human His-PIM2 [23-299], 14%.

Turning to `N[C@@H]1CCCN(c2c(/C=C3\SC(=O)NC3=O)cccc2-c2ccccc2)C1` [Example 122AI, (R,Z)-5-((2-(3-aminopiperidin-1-yl)biphenyl-3-yl)methylene)thiaozlidine-2,4-dione], the inhibition at 0.3 µM on human His-PIM1 [2-313] (setting [1]) and on human His-PIM2 [23-299] was greater than 95% in each case.

In the case of `NC[C@H]1CCN(c2c(Cl)cccc2/C=C2\SC(=O)NC2=O)C1` [Example 122B, (R,Z)-5-(2-(3-(aminomethyl)pyrrolidin-1-yl)-3-chlorobenzylidene)thiazolidine-2,4-dione], the inhibition at 0.3 µM was greater than 95% at human His-PIM1 [2-313] (setting [1]) and 92.3% at human His-PIM2 [23-299].

`NC[C@@H]1CCN(c2c(Cl)cccc2/C=C2\SC(=O)NC2=O)C1` [Example 122C, (S,Z)-5-(2-(3-(aminomethyl)pyrrolidin-1-yl)-3-chlorobenzylidene)thiazolidine-2,4-dione]: the inhibition at 0.3 µM on human His-PIM1 [2-313] (setting [1]) and at human His-PIM2 [23-299] was greater than 95% in each case.

Regarding `N[C@@H]1CCCN(c2c(Cl)cccc2/C=C2\SC(=O)NC2=O)C1` [Example 122D, (R,Z)-5-(2-(3-aminopiperidin-1-yl)-3-chlorobenzylidene)thiazolidin-2,4-dione hydrochloride], the inhibition at 0.3 µM on human His-PIM1 [2-313] (setting [1]) and on human His-PIM2 [23-299] was greater than 95% throughout.

With `COc1cccc(/C=C2\SC(=O)NC2=O)c1N1CCC[C@@H](N)C1` [Example 122E, (R,Z)-5-(2-(3-aminopiperidin-1-yl)-3-methoxybenzylidene)thiazolidine-2,4-dione hydrochloride], the inhibition at 0.3 µM at human His-PIM1 [2-313] (setting [1]) and on human His-PIM2 [23-299] was greater than 95% each time.

For `N[C@@H]1CCCN(c2c(Br)cccc2/C=C2\SC(=O)NC2=O)C1` [Example 122F, (R,Z)-5-(2-(3-aminopiperidin-1-yl)-3-bromobenzylidene)thiazolidine-2,4-dione hydrochloride], the inhibition at 0.3 µM on human His-PIM1 [2-313] and on human His-PIM2 [23-299] was greater than 95% each time.

`N[C@@H]1CCN(c2c(Cl)cccc2/C=C2\SC(=O)NC2=O)C1` [Example 122G, (R,Z)-5-(2-(3-aminopyrrolidin-1-yl)-3-chlorobenzylidene)thiazolidin-2,4-dione hydrochloride]: the values for the inhibition at 0.3 µM at human His-PIM1 [2-313] (setting [1]) and at human His-PIM2 [23-299] were greater than 95% and 92.1%, respectively.

On to `N[C@H]1CCN(c2c(Br)cccc2/C=C2\SC(=O)NC2=O)C1` [Example 122H, (S,Z)-5-(2-(3-aminopyrrolidin-1-yl)-3-bromobenzylidene)thiazolidine-2,4-dione hydrochloride], for which the inhibition at 0.3 µM at human His-PIM1 [2-313] (setting [1]) and at human His-PIM2 [23-299] was greater than 95% in each case.

As to `CCOc1cccc(/C=C2\SC(=O)NC2=O)c1N1CCC[C@@H](N)C1` [Example 122I, (R,Z)-5-(2-(3-aminopiperidin-1-yl)-3-ethoxybenzylidene)thiazolidine-2,4-dione hydrochloride], the inhibition at 0.3 µM at human His-PIM1 [2-313] (setting [1]) and on human His-PIM2 [23-299] was greater than 95% throughout.

Regarding `N[C@@H]1CCCN(c2c(/C=C3\SC(=O)NC3=O)cccc2OCC2CCCCC2)C1` [Example 122K, (R,Z)-5-(2-(3-aminopiperidin-1-yl)-3-(cyclohexylmethoxy)benzylidene)thiazolidine-2,4-dione hydrochloride], the inhibition at 0.3 µM on human His-PIM1 [2-313] (setting [1]) and on human His-PIM2 [23-299] was greater than 95% each time.

With `N[C@@H]1CCCN(c2c(/C=C3\SC(=O)NC3=O)cccc2OC2CCCCC2)C1` [Example 122L, hydrochloride], the inhibition at 0.3 µM on human His-PIM1 [2-313] (setting [1]) and on human His-PIM2 [23-299] was greater than 95% in each case.

Take `O=C1NC(=O)/C(=C/c2cccc(Cl)c2N2CCCNCC2)S1` [Example 122N, (Z)-5-(3-chloro-2-(1,4-diazepan-1-yl)benzylidene)thiazolidine-2,4-dione hydrochloride]: the inhibition at 0.3 µM at human His-PIM1 [2-313] (setting [1]) and on human His-PIM2 [23-299] was greater than 95% throughout.

As for `CC(C)Oc1cccc(/C=C2\SC(=O)NC2=O)c1N1CCC[C@@H](N)C1` [Example 122O, (R,Z)-5-(2-(3-aminopiperidin-1-yl)-3-isopropoxybenzylidene)thiazolidine-2,4-dione hydrochloride], the inhibition at 0.3 µM on human His-PIM1 [2-313] (setting [1]) and on human His-PIM2 [23-299] was greater than 95% each time.

Consider `CC(C)Oc1cccc(/C=C2\SC(=O)NC2=O)c1N1CC[C@H](N)C1` [Example 122P, (S,Z)-5-(2-(3-aminopyrrolidin-1-yl)-3-isopropoxybenzylidene)thiazolidine-2,4-dione hydrochloride], for which the inhibition at 0.3 µM on human His-PIM1 [2-313] (setting [1]) and at human His-PIM2 [23-299] was greater than 95% in each case.

As to `CCOc1cccc(/C=C2\SC(=O)NC2=O)c1N1CC[C@H](N)C1` [Example 122Q, (S,Z)-5-(2-(3-aminopyrrolidin-1-yl)-3-ethoxybenzylidene)thiazolidine-2,4-dione hydrochloride], the inhibition at 0.3 µM at human His-PIM1 [2-313] (setting [1]) and at human His-PIM2 [23-299] was greater than 95% throughout.

Consider `NCc1ccc(CN[C@@H]2CCCN(c3c(Cl)cccc3/C=C3\SC(=O)NC3=O)C2)cc1` [Example 122R, (R,Z)-5-(2-(3-(4-(aminomethyl)benzylamino)piperidin-1-yl)-3-chlorobenzylidene)thiazolidine-2,4-dione hydrochloride], for which the inhibition at 0.3 µM is greater than 95% on human His-PIM1 [2-313] (setting [1]) and 89.6% on human His-PIM2 [23-299].

Regarding `CNCCN[C@@H]1CCCN(c2c(Cl)cccc2/C=C2\SC(=O)NC2=O)C1` [Example 122S, (R,Z)-5-(3-chloro-2-(3-(2-(methylamino)ethylamino)piperidin-1-yl)benzylidene)thiazolidine-2,4-dione hydrochloride], the inhibition at 0.3 µM on human His-PIM1 [2-313] (setting [1]) and on human His-PIM2 [23-299] was greater than 95% throughout.

For the molecule `N[C@H]1CN(c2c(Cl)cccc2/C=C2\SC(=O)NC2=O)C[C@@H]1O` [Example 122T, (Z)-5-(2-((3S,4S)-3-amino-4-hydroxypyrrolidin-1-yl)-3-chlorobenzylidene)thiazolidine-2,4-dione hydrochloride], the inhibition at 0.3 µM on human His-PIM1 [2-313] (setting [1]) and on human His-PIM2 [23-299] was greater than 95% throughout.

As to `CNC1CN(c2c(Cl)cccc2/C=C2\SC(=O)NC2=O)CCC1C` (stereo not shown) [Example 122U, (Z)-5-(3-chloro-2-(4-methyl-3-(methylamino)piperidin-1-yl)benzylidene)thiazolidine-2,4-dione hydrochloride], the inhibition at 0.3 µM at human His-PIM1 [2-313] (setting [1]) and on human His-PIM2 [23-299] was greater than 95% in each case.

In the case of `CC1CCN(c2c(Cl)cccc2/C=C2\SC(=O)NC2=O)CC1N` (stereo not shown) [Example 122V, (Z)-5-(2-(3-amino-4-mnethylpiperidin-1-yl)-3-chlorobenzylidene)thiazolidine-2,4-dione hydrochloride], the inhibition at 0.3 µM on human His-PIM1 [2-313] (setting [1]) and at human His-PIM2 [23-299] was greater than 95% in each case.

As for `N[C@@H]1CCCN(c2ccccc2/C=C2\SC(=O)NC2=O)C1` [Example 122W, (R,Z)-5-(2-(3-aminopiperidin-1-yl)benzylidene)thiazolidine-2,4-dione hydrochloride], the inhibition at 0.3 µM on human His-PIM1 [2-313] (setting [1]) and at human His-PIM2 [23-299] was greater than 95% in each case.

`N[C@H]1CCN(c2ccccc2/C=C2\SC(=O)NC2=O)C1` [Example 122X, (S,Z)-5-(2-(3-aminopyrrolidin-1-yl)benzylidene)thiazolidine-2,4-dione hydrochloride]: the results for the inhibition at 0.3 µM on human His-PIM1 [2-313] (setting [1]) and at human His-PIM2 [23-299] were greater than 95% and 67.1%, respectively.

Consider `N[C@@H]1CCCN(c2c(/C=C3\SC(=O)NC3=O)cccc2OCC(F)(F)F)C1` [Example 122Y, (R,Z)-5-(2-(3-aminopiperidin-1-yl)-3-(2,2,2-trifluoroethoxy)benzylidene)thiazolidine-2,4-dione hydrochloride], for which the inhibition at 0.3 µM on human His-PIM1 [2-313] (setting [1]) and on human His-PIM2 [23-299] was greater than 95% each time.

Regarding `N[C@H]1CCN(c2c(/C=C3\SC(=O)NC3=O)cccc2OCC(F)(F)F)C1` [Example 122Z, (S,Z)-5-(2-(3-aminopyrrolidin-1-yl)-3-(2,2,2-trifluoroethoxy)benzylidene)thiazolidine-2,4-dione hydrochloride], the inhibition at 0.3 µM at human His-PIM1 [2-313] (setting [1]) and on human His-PIM2 [23-299] was greater than 95% throughout.
